Measurements reported in paper PMC4280171, “Novel PDE4 Inhibitors Derived from Chinese Medicine Forsythia” (PLoS ONE, 2014).
Where two headings read alike, the source gives them in different places.

What was measured:
[1] = target: PDE4; assay: PDE-Glo phosphodiesterase activity assay, PDE4; format: biochemical, human; conditions: for IC50: 10 mU purified PDE4 per reaction, PDE-Glo assay
Procedure: Compounds 1–14 (Fig. 2) were tested in vitro using PDE-glo phosphodiesterase assay (Promega, Madison, WI). Briefly, all the compounds were diluted in DMSO, and the final concentrations in each assay were 100, 10, 1, 0.1, 0.01, 0.001, 0.0001 µM. For the PDE4 activity assay, 10 mU of purified PDE4D (Millipore) was used per reaction. […] PDE4 = 8 µM.
(§1) For the PDE activity assay, all test compounds were diluted in DMSO with final concentrations in each assay of 100, 10, 1, 0.1, 0.01, 0.001, 0.0001 µM. For the PDE4 activity assay, 10 mU of purified PDE4 (Millipore) was used per reaction. Compounds 6, 7, 9 and 13 (blue underline) were further tested in PDE3, 5, 7, 10 activity assays in which 25 mU of purified enzyme was used per reaction. Summary of compound IC50 in lower right corner. TEXT PRINTED IN THE PICTURE: Compound 6: PDE3: >100uM; PDE4: 90nM; PDE5: 80uM; PDE7: >100uM; PDE10: >100uM | Compound 7: PDE3: >100uM; PDE4: 8uM; PDE5: >100uM; PDE7: >100uM; PDE10: >100uM | Compound 9: PDE3: >100uM; PDE4: 60nM; PDE5: >100uM; PDE7: >100uM; PDE10: >100uM | Compound 13: PDE3: >100uM; PDE4: 10nM; PDE5: 90uM; PDE7: >100uM; PDE10: >100uM
(§2) A PDE activity assay was carried out using the PDE-Glo Phosphodiesterase Assay per manufacturer’s instruction (Promega). Briefly, 5 ul of 1X PDE-Glo Reaction buffer containing 10 mU of purified human recombinant PDE4A4 (Millipore) was added to 96 well plate. All test compounds were dissolved in DMSO and a serial dilution (110) of the inhibitors were performed using 1X PDE-Glo Reaction buffer. 7.5 ul of test compounds were added to the PDE enzyme with the final concentrations in each assay of 100, 10, 1, 0.1, 0.01, 0.001, 0.0001 µM, and incubated at room temperature for 10 min. To initiate the PDE reaction, 12.5 ul of 2 µM cAMP was added to each reaction, mixed well and incubate at room temperature for 10 min. The reactions were terminated using 12.5 ul of PDE-Glo Termination Buffer. 12.5 ul of PDE-Glo Detection Solution containing PDE-Glo Detection Buffer and Protein Kinase A was added to each reaction. The reactions were carried at room temperature for 20 min. 50 ul of Kinase-Glo Reagent was then added to each reaction, mixed well, and incubate for 10 minutes at room temperature. The chemical luminescence signals were measured, quantified and graphed. Compounds 6, 7, 9 and 13 were further tested similarly using 25 mU purified PDE3, 5, 7, 10 (Millipore) enzyme.

[2] = target: PDE3; assay: PDE-Glo phosphodiesterase activity assay, PDE3; format: biochemical; conditions: 25 mU purified enzyme per reaction
Procedure: as §1, §2

[3] = target: T1, PDE5 (Homo sapiens, UniProt O76074); assay: PDE-Glo phosphodiesterase activity assay, PDE5; format: biochemical; conditions: 25 mU purified enzyme per reaction
T1 construct: purchased Millipore
Procedure: as §1, §2

[4] = target: PDE7; assay: PDE-Glo phosphodiesterase activity assay, PDE7; format: biochemical; conditions: 25 mU purified enzyme per reaction
Procedure: as §1, §2

[5] = target: T2, PDE10 (Homo sapiens, UniProt Q9Y233); assay: PDE-Glo phosphodiesterase activity assay, PDE10; format: biochemical; conditions: 25 mU purified enzyme per reaction
T2 construct: purchased Millipore
Procedure: as §1, §2

[6] = tested on: LPS stimulated RAW264.7 cells; assay: TNF secretion in LPS stimulated RAW264.7 cells (ELISA); format: cell-based; conditions: Mus musculus, primed with compound 3 h, LPS 1 ng/ml 8 h, read-out: IC50 TNF secretion, RAW 264.7
Procedure: (§3) Figure 4 Tested compounds reduce TNF secretion in LPS stimulated mouse RAW264.7 and human PBMCs. A. 5×10^5 RAW264.7 cells were seeded in 96 wells for 18 h. Cells were primed with compounds at different concentration for 3 h before treated with LPS (1 ng/ml) for additional 8 h. TNF cytokine releases were monitored by ELISA. B. PBMC (0.2 ml at 1×10^5/ml) were primed with compounds at different concentration for 3 h before treated with LPS (1 ng/ml) for additional 8 h. TNF cytokine releases were monitored by ELISA. % of TNF secretion were calculated and graphed. C. Summary of compound IC50. The data represent n = 3–6 experiments. TEXT PRINTED IN THE PICTURE: (C) C6: RAW 264.7: 400nM; PBMC: 90nM | (C) C7: RAW 264.7: 8uM; PBMC: 10uM | (C) C9: RAW 264.7: 100nM; PBMC: 80nM | (C) C13: RAW 264.7: 70nM; PBMC: 25nM
(§4) 5×10^5 RAW264.7 cells were seeded in 96 wells for 18 h. Cells were primed with compounds at different concentration for 3 h before treated with LPS (1 ng/ml) for additional 8 h. TNF cytokine releases were monitored by ELISA. PBMC (0.2 ml at 1×10^5/ml) were primed with compounds at different concentration for 3 h before treated with LPS (1 ng/ml) for additional 8 h. TNF cytokine releases were monitored by ELISA. % of TNF secretion were calculated and graphed.

[7] = tested on: LPS stimulated PBMC; assay: TNF secretion in LPS stimulated PBMC (ELISA); format: cell-based; conditions: Homo sapiens, primed with compound 3 h, LPS 1 ng/ml 8 h
Procedure: as §3, §4

[8] = tested on: LPS stimulated RAW264.7 and PBMC cells; assay: TNF secretion in LPS stimulated cells, RAW264.7 and PBMC; format: cell-based, mouse; human; conditions: Mus musculus
Procedure: Compound 6, 7, 9 and 13 were also tested in LPS stimulated RAW264.7 (Fig. 4A) and PBMC (Fig. 4B) cells to evaluate their ability to suppress TNF secretion. […] PDE4. […] TNF ranging from 25–75 nM (Fig. 4C).
as §3, §4

[9] = tested on: C57/BL6 mice given LPS (E. coli, 100 µg i.p.); assay: LPS septic shock model; format: in vivo, mouse; conditions: for ID50 IL-6 / inhibitory dose [ID50] TNF: i.p. 10 min before LPS 100 ug i.p., blood 2 h later
Procedure: Mice were euthanized 2 h later using pentobarbital where blood was collected and assayed for IL6 and TNF cytokine levels. […] In a separate experiment, a brief pharmacokinetic study was performed where PDE4 inhibitors (1 mg/kg, i.p.) were given to mice 18 h before LPS administration (E. coli, 100 ug i.p.).
Figure 6 PDE4 inhibitors lessen cytokine storm induced by LPS septic shock. C57/BL6 mice were administered i.p. nothing (CON), vehicle, 10 ug/kg, 100 ug/kg, 1 mg/kg or 10 mg/kg of compounds 6, 7 or 9. Mice were given LPS (E. coli, 100 µg) 10 min later through an i.p. injection. 2 h later mice were euthanized using pentobarbital and blood was collected for IL-6 and TNF measurements. Shown in panel A–B is the % inhibition of cytokine levels as a function of drug dose. The data represent n = 3 mice/group at each dose. C57/BL6 mice were also pretreated with compound 5, 6, 7 or 9 at 1 mg/kg. Mice were given LPS (E. coli, 100 µg) 18 h later through an i.p. injection. 2 h later the mice were euthanized using pentobarbital and blood was collected for IL-6 and TNF measurements (C–D).
Compounds were diluted in PBS and various amounts (0.01, 0.1, 1 and 10 mg/kg) of compounds were administered to mice though an i.p. injection. 10 min later, mice were given 100 µg of LPS (E. coli) through an i.p. injection. 2 h later, mice were euthanized. Plasma was collected and processed for cytokine assays.

[10] = tested on: C57/BL6 mice challenged with H1N1 (A/PR/8/34); assay: H1N1 pneumonia model; format: in vivo, mouse; conditions: 30 µg/ml in drinking water, estimated dose 5 mg/kg/d; for survival of mice infected with H1N1: versus diluent
[11] = tested on: murine models of inflammation; conditions: parenteral and oral application; for severity of tissue injury: in each of the models
[12] = tested on: PDE4; set-up: method as in PMID 15476679; conditions: selective inhibitors of PDE4 isolated from traditional Chinese medicines; cited from earlier work
[13] = RAW264.7, range over both cell types (and over the compounds named)

T2 sequence (Q9Y233 whole entry): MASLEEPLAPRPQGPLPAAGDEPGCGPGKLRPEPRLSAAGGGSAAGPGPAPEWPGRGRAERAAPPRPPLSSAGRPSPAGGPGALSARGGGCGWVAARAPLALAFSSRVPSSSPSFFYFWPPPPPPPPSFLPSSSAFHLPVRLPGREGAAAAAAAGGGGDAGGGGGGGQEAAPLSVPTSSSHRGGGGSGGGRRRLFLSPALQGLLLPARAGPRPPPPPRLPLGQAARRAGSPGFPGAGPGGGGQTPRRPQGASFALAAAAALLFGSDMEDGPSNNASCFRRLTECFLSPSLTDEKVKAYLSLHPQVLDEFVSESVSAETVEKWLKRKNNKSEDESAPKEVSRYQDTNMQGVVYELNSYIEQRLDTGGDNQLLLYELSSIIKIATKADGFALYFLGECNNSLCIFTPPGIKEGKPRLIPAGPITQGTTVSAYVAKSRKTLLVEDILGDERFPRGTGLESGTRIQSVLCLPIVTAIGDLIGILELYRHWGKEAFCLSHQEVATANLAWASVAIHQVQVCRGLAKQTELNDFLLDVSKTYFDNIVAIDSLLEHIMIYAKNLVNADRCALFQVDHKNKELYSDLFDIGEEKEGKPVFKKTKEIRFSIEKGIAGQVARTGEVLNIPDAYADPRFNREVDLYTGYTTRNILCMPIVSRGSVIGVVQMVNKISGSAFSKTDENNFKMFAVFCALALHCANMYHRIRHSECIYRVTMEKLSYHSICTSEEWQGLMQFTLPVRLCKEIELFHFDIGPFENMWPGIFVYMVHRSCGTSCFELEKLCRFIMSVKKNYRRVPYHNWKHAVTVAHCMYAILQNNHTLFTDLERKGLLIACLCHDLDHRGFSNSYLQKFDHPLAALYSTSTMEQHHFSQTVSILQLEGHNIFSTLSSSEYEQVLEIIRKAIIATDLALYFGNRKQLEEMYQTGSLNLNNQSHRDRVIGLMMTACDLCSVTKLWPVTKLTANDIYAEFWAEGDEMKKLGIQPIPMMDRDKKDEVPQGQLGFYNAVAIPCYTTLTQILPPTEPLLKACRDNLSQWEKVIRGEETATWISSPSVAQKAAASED

Row | SMILES | IC50 [1] [µM] | IC50 [2] [µM] | IC50 [3] [µM] | IC50 [4] [µM] | IC50 [5] [µM] | IC50 [6] [µM] | IC50 [7] [µM] | IC50 [8, 13] [µM] | serum TNF and IL-6 after 18 h lead time ([9]; 1 mg/kg i.p. 18 h before LPS 100 ug i.p.) | ID50 IL-6 [9] | inhibitory dose [ID50] TNF [9] | lavage cell counts, protein concentrations, and lavage cytokine IL-6 and TNF [10] | serum cytokines from H1N1-induced systematic inflammation [10] | signs of tissue injury (H&E, lung) [10] | survival of mice infected with H1N1 [10] | severity of tissue injury [11] | overt signs of distress in treated animals [11] | times weaker in activity toward PDE4 compared with compound 6 ([1]; in vitro) [times] | IC50 ([8]; RAW264.7, range over both cell types) [µM] | IC50 [12] [µM]
1 | COc1cccc(CN2N=NC3C(=O)N(c4ccc(OC)c(OC)c4)C(=O)C32)c1 (stereo not drawn) [Compound 9] | 0.06 | > 100 | > 100 | > 100 | > 100 | 0.1 | 0.08 | 0.025 to 0.4 | excellent efficacy reducing both serum TNF and IL-6 cytokines | 0.1∼1 mg/kg | 0.01∼1 mg/kg | decreased | significantly reduced | able to lessen signs of tissue injury | significantly improved the survival | lessen severity of tissue injury | none of the animals treated with the agents exhibited overt signs of distress |  |  | 
2 | COc1ccc([C@@H]2OC[C@H]3[C@@H]2CO[C@@H]3c2ccc(O[C@@H]3O[C@H](CO)[C@@H](O)[C@H](O)[C@H]3O)c(OC)c2)cc1OC [Compound 7, Forsythin] | 8 | > 100 | > 100 | > 100 | > 100 | 8 | 10 |  |  | 0.1∼1 mg/kg | 0.01∼1 mg/kg | decreased | significantly reduced | able to lessen signs of tissue injury | significantly improved the survival | lessen severity of tissue injury | none of the animals treated with the agents exhibited overt signs of distress | > 80 | 8 to 10 | 
3 | COc1cc(O)c2c(=O)c(-c3ccc(O)cc3)coc2c1 [prunetin] |  |  |  |  |  |  |  |  |  |  |  |  |  |  |  |  |  |  |  | 10 to 100
4 | COc1ccc(C2OCC3(O)C(c4ccc(OC)c(OC)c4)OCC23)cc1OC (stereo not drawn) [Compound 6] | 0.09 | > 100 | 80 | > 100 | > 100 | 0.4 | 0.09 | 0.025 to 0.4 |  | 0.1∼1 mg/kg | 0.01∼1 mg/kg | decreased | significantly reduced | able to lessen signs of tissue injury | significantly improved the survival | lessen severity of tissue injury | none of the animals treated with the agents exhibited overt signs of distress |  |  | 
5 | COc1ccc(N2C(=O)C3N=NN(CC(=O)Nc4cc(C)cc(C)c4)C3C2=O)cc1OC (stereo not drawn) [Compound 13] | 0.01 | > 100 | 90 | > 100 | > 100 | 0.07 | 0.025 | 0.025 to 0.4 |  |  |  | decreased | significantly reduced | able to lessen signs of tissue injury | significantly improved the survival | lessen severity of tissue injury | none of the animals treated with the agents exhibited overt signs of distress |  |  | 
6 | COc1ccc([C@@H]2CC(=O)c3c(O)cc(O)cc3O2)cc1O [Hesperetin] |  |  |  |  |  |  |  |  |  |  |  |  |  |  |  |  |  |  |  | 10 to 100
